Measurements from patent US12128010B2, “Semifluorinated compounds and their compositions” (NOVALIQ GMBH, priority 2015, dated 2024).
“Also recorded” adds a separate entry of the source. One block for each compound: values may come before it.

Legend:
[1] = Differential Scanning Calorimetry of mixtures; type: physicochemical
Description: Differential Scanning calorimetry (DSC 1, Mettler Toledo, Greifensee, Switzerland) is used to characterize structure and phase behavior of mixtures of CF3(CF2)5—CH(CH3)—(CH2)5—CH3 and CF3(CF2)5(CH2)7CH3. DSC was employed to obtain data on transitions by temperature rising scans with heating rate of 1° C./min. Sealed standard aluminum crucibles (40 μl, Mettler Toledo) were used.

[2] = Evaporation time of mixtures; type: physicochemical; conditions: FIG. 1, in words
Description: The evaporation time of mixtures of the semifluorinated alkane CF3(CF2)5(CH2)7CH3 and CF3(CF2)5—CH(CH3)—(CH2)5—CH3 was evaluated. A droplet of 10 μL volume of each mixture was placed on a glass surface at room temperature. Time until evaporation was recorded by video-monitoring.

[3] = Refractive index of mixtures; type: physicochemical; conditions: FIG. 2, in words
Description: The refractive index of the mixtures was also determined. For topically applied ophthalmic compositions, the refractive index of the composition should preferably similar, or adapted to that of the eye and lens, for instance as close to that of physiological tear fluid as possible. If the refractive index of a composition is not similar, when applied to the surface of the eye, a patient may experience blurring or impaired vision. […] By varying the amount of this semifluorinated alkane in the mixture, it may also be feasible to adapt the composition to the requirements of the intended ophthalmic use, for instance adapting to a patient with an altered tear fluid composition and refractive index, due to an eye condition and/or age.

Rabbit corneas = assay: Ex Vivo Eye Irritation Test (EVEIT), corneal healing
Description: Anim., 2008 (36) p 25-32; and N. Schrage et al, Graefes Arch Clin Exp Ophthalmol 2012 (250), 1330-1340).
Method. Rabbit corneas were obtained and placed in an artificial anterior ocular chamber which was gently filled with serum-free minimal essential medium (Eagle's MEM) containing Earle's salts and HEPES buffer for nutrition. The medium was contstantly replenished by a micropump to imitate the physiological condition of the eye. The culture chambers were held at 32° C. under normal air without supplementary CO2 and >95% relative humidity. Five corneas per test substance (n=5) were used except for the postive control with which two corneas (n=2) were tested.
After 12 h of stabilization in the culture chamber, the corneas were evaluated by microscopy and corneas with intact epithelium and without opacities were selected. Four small abrasions (2.3-4.3 mm^2) were applied to the surface of the selected corneas with a cornea drill. All defects were monitored by fluorescein sodium staining (0.17% aq. solution) and microscopy.
The test substances were administered one hour after induction of the corneal erosion and were applied six times daily onto the apex of the corneas (30-50 μL every four hours). A soft-tipped cannula, with continuous suction was placed on the lowest part of the corneoscleral region within the culturing chamber to remove any excess fluid. Experiments were terminated after 3 days of application. Biomicroscopic images of the corneas were taken daily to document the corneal healing process using a phase-contrast microscope integrated camera (KY-F1030U, JVC, (Bad Vilbel, DE) mounted on a Z16 APO Microscope (Wetzlar, DE)). All defects were monitored by fluorescein sodium stains (0.17% aq. solution) with yellow green fluorescence indicating the areas of epithelial defects. Erosion sizes were determined using a software tool of the microscope (DISKUS). At the end of the 3 days, the experiment was terminated and all corneas were fixed in 3.7% formaldehyde and stained with a hematoxylin-eosin dye for microscopic evaluation. To monitor the metabolic activity of the cornea, glucose and lactate concentrations were photometrically quantified in the outflow medium from the artificial anterior chambers.

[4] = hematoxylin-eosin stained corneas after 3 days of application

Compound: CCCCCCC(C)C(F)(F)C(F)(F)C(F)(F)C(F)(F)C(F)(F)C(F)(F)F (centres unmarked) [CF3—(CF2)5—CH(CH3)—(CH2)5—CH3, 2-perfluorohexyloctane]
effect on melting enthalpy when present in a mixture with F6H8 ([1]; in words): decreased
effect on melting temperature when present in a mixture with F6H8 ([1]; in words): significant reduction in the melting temperature
effect of increasing percentage on evaporation time of the mixtures [2]: decreases the evaporation time
effect of increased content on refractive index of the mixtures [3]: increasing refractive index value

Low temperature transition Endset ([1]; DSC, heating rate 1° C./min): −38.32 °C
Low temperature transition Onset ([1]; DSC, heating rate 1° C./min): −45.47 °C
Low temperature transition Peak ([1]; DSC, heating rate 1° C./min): −40.37 °C
Low temperature transition ΔH ([1]; DSC, heating rate 1° C./min): -0.69 J/g
Melting transition Endset ([1]; DSC, heating rate 1° C./min): −2.14 °C
Melting transition Onset ([1]; DSC, heating rate 1° C./min): −6.33 °C
Melting transition Peak ([1]; DSC, heating rate 1° C./min): −4.53 °C
Melting transition ΔH ([1]; DSC, heating rate 1° C./min, label = wt % CF3—(CF2)5—CH(CH3)—(CH2)5—CH3 in mixture with CF3(CF2)5(CH2)7CH3): -36.57 J/g
Compound: CCCCCCCCC(F)(F)C(F)(F)C(F)(F)C(F)(F)C(F)(F)C(F)(F)F [Composition 0, 1-perfluorohexyloctane]

Compound: benzalkonium chloride [0.01% BAC]
Corneal Erosion Size, Mean (SD) (Rabbit corneas; Day 0 (before application)): 11.57 (0.86) mm^2
Corneal Erosion Size, Mean (SD) (Rabbit corneas; Day 1, applied six times daily, 30-50 μL): 5.91 (0.28) mm^2
Corneal Erosion Size, Mean (SD) (Rabbit corneas; Day 2, applied six times daily, 30-50 μL): 8.74 (7.6) mm^2
Corneal Erosion Size, Mean (SD) (Rabbit corneas; Day 3, applied six times daily, 30-50 μL): 17.46 (6.43) mm^2
Day 3 Histological Observations: Descemet membrane and endothelium (Rabbit corneas; [4]): Descemet membrane is present with intact endothelium
Day 3 Histological Observations: epithelium, stroma, corneal structure (Rabbit corneas; [4]): Severe alterations of the superficial cornea with disintegration of; also recorded: Reduced staining of background substance indicating chemical
Day 3 Histological Observations: keratocytes (Rabbit corneas; [4]): Severe reduction in number of keratocyte cells which also appear
course of the induced epithelial erosions/lesions (Rabbit corneas; over the three days of the experiment, in words): progressive increase
